Reference: patent publication US20260217679A1, “CANCER TREATING COMPOUNDS” (UNIVERSITY OF BRADFORD, priority 2023, published 2026)
Where two headings read alike, the source gives them in different places.

What was measured:
JR1 = experiment: Anti-proliferative activity in RMS cell lines, MTT assay; type: cell-based; conditions: read-out: IC50 JR1
Protocol: (§1) Briefly, […] of a cell suspension (~2000 cells/well) was added in fresh, sterile 96-well plates. Afterwards, rhabdomyosarcoma (RMS) cell lines (RH30, RH41 and JR1) were incubated for 24 h at 37° C., 5% CO2 to allow cellular attachment on the surface of the wells. On the next day after cell seeding, cells were treated with the duocarmycin compounds. 20 μL of drug dilution was added into the wells, making up a final volume of 200 μL/well. In untreated control wells, 20 μL of fresh medium was added instead (0.1% DMSO). Duocarmycin stock concentrations were prepared in DMSO; the concentration of the latter in the wells containing the medium and cells never exceeded 0.1% (v/v). The concentrations tested ranged from 100 μM to 1 pM depending on the IC50 of each compound from preliminary screening. Each experiment was tested at least in triplicate, and antiproliferative activity was determined after 96 hours using a standard MTT (3-(4,5-dimethylthiazol-2-yl)-2,5-diphenyltetrazolium bromide) assay.

RH30 = experiment: as above; type: cell-based; conditions: read-out: IC50 RH30
Protocol: as §1

RH41 = experiment: as above; type: cell-based; conditions: Homo sapiens, read-out: IC50 RH41
Protocol: as §1

MDA-MB-231 = experiment: Growth inhibition of MDA-MB-231 (triple-negative) breast cancer cell line; type: cell-based; conditions: Homo sapiens
Protocol: (§2) The compounds of the present invention were evaluated for their ability to inhibit the growth of MDA-MB-231 (triple-negative) and MCF-7 (oestrogen receptor positive) breast cancer cell lines. A positive control (PC), seco-CBI-MI, with structure shown below, was used as a baseline for comparison of the efficacy of the compounds of the present invention.

[1] = test system: H2AX phosphorylation in MDA-MB-231; experiment: H2AX phosphorylation Western Blot as marker of double-stranded DNA damage; type: cell-based, human; conditions: MDA-MB-231, Western Blot, FIG. 1
From the text: The mechanism of action of the naturally occurring duocarmycins is well documented and involves spirocyclization of the seco-duocamycins including those derived from the CBI and other aryl-ring-fused subunits of the duocarmycin alkylating subunit.

MCF-7 = experiment: Growth inhibition of MCF-7 (oestrogen receptor positive) breast cancer cell line; type: cell-based; conditions: Homo sapiens
Protocol: as §2

[2] = MDA-MB-231 growth inhibition, read-out: IC50 MDA MB 231
[3] = MCF7, MCF-7 growth inhibition, read-out: IC50 MCF7
[4] = MDA-MB-231, read-out: IC50 MDA MB 231

Structure (SMILES) | IC50 (JR1; 96 h) [nM] | IC50 (RH30; Rh30, 96 h) [nM] | IC50 (RH41; Rh41, 96 h) [nM] | IC50 (MDA-MB-231; [2]) [nM] | IC50 (JR1; JR1, 96 hours, MTT) [nM] | IC50 (RH30; RH30, 96 hours, MTT) [nM] | IC50 (RH41; RH41, 96 hours, MTT) [nM] | DNA damage measured using H2AX phosphorylation [1] | IC50 (MCF-7; [3]) [nM] | IC50 (MDA-MB-231; [4]) [nM] | IC50 (MCF-7; MCF7, read-out: IC50 MCF7) [nM]
COc1ccc2[nH]c(C(=O)N3CC(CCl)c4c3cc(-c3ccncc3)c3ccccc43)cc2c1 (centres unmarked) [ICT11040, (1-(Chloromethyl)-5-(pyridin-4-yl)-1H-benzo[e]indol-3(2H)-yl)(5-methoxy-1H-indol-2-yl)methanone] | 861 ± 329 | 494 ± 267 | 576 ± 405 |  |  |  |  |  |  |  | 
COc1ccc2[nH]c(C(=O)N3CC(CCl)c4c3cc(-c3cccnc3)c3ccccc43)cc2c1 (centres unmarked) [ICT11041, (1-(Chloromethyl)-5-(pyridin-3-yl)-1H-benzo[e]indol-3(2H)-yl)(5-methoxy-1H-indol-2-yl)methanone] | 12200 ± 4580 | 8040 ± 1030 | 6000 ± 5120 |  |  |  |  |  |  |  | 
COCc1ccc(-c2cc3c(c4ccccc24)C(CCl)CN3C(=O)c2cc3cc(OC)ccc3[nH]2)cc1 (centres unmarked) [ICT11039, (1-(Chloromethyl)-5-(4-(methoxymethyl)phenyl)-1H-benzo[e]indol-3(2H)-yl)(5-methoxy-1H-indol-2-yl)methanone] | 10100 ± 5780 | 12800 ± 8460 | 1140 ± 500 |  |  |  |  |  |  |  | 
COC(=O)[C@H](CC(C)C)Nc1cc2c(c3ccccc13)C(CCl)CN2C(=O)c1cc2cc(OC)ccc2[nH]1 (some centres unmarked) [DP65] |  |  |  | 28.3 ± 29 | 0.323 ± 0.291 | 0.0763 ± 0.129 | 0.00551 ± 0.00229 | generated DNA damage | 8.1 ± 7 |  | 
O=C(c1cc2cc(O)ccc2[nH]1)N1CC(CCl)c2c1cc(OCc1ccccc1)c1ccccc21 (centres unmarked) [DP40] |  |  |  | 2200 ± 200 | 1400 ± 1240 | 227 ± 307 | 530 ± 514 |  | 1300 ± 100 |  | 
COc1ccc(-c2cc3c(c4ccccc24)C(CCl)CN3C(=O)c2cc3cc(OC)ccc3[nH]2)cc1 (centres unmarked) [ICT11038, (1-(Chloromethyl)-5-(4-methoxyphenyl)-1H-benzo[e]indol-3(2H)-yl)(5-methoxy-1H-indol-2-yl)methanone] | 801000 ± 207000 | 35.8 ± 16.4 | 121000 ± 95300 |  |  |  |  |  |  |  | 
COc1ccc2[nH]c(C(=O)N3CC(CCl)c4c3cc(-c3ccc(O)cc3)c3ccccc43)cc2c1 (centres unmarked) [DP36] | 7.28 ± 6.1 | 6.69 ± 4.33 | 24.9 ± 34 |  |  |  |  | generated DNA damage |  | 23.3 ± 9.9 | 20 ± 27.1
COc1ccc2[nH]c(C(=O)N3CC(CCl)c4c3cc(-c3ccccc3O)c3ccccc43)cc2c1 (centres unmarked) [ICT11044, (1-(Chloromethyl)-5-(2-hydroxyphenyl)-1H-benzo[e]indol-3(2H)-yl)(5-methoxy-1H-indol-2-yl)methanone] | 422 ± 177 | 124 ± 134 | 291 ± 204 |  |  |  |  |  |  |  | 
COc1ccc2[nH]c(C(=O)N3CC(CCl)c4c3cc(Nc3ccc(C(F)(F)F)cc3)c3ccccc43)cc2c1 (centres unmarked) [DP70] |  |  |  | 129 ± 18.9 | 44.6 ± 56.1 | 18.9 ± 18.9 | 31.2 ± 28.8 | generated DNA damage | 76.7 ± 29 |  | 
COc1ccc2[nH]c(C(=O)N3CC(CCl)c4c3cc(-c3cccc(O)c3)c3ccccc43)cc2c1 (centres unmarked) [DP47] | 59.2 ± 27.2 | 60.3 ± 49.1 | 19.2 ± 20.9 |  |  |  |  | generated DNA damage |  | 206 ± 79.6 | 104 ± 79.8
COc1ccc2[nH]c(C(=O)N3CC(CCl)c4c3cc(O)c3ccccc43)cc2c1 (centres unmarked) [DP31] |  |  |  |  | 0.243 ± 0.308 | 0.0861 ± 0.0248 | 0.0368 ± 0.0316 | generated DNA damage |  |  | 
COc1ccc2[nH]c(C(=O)N3CC(CCl)c4c3cc(-c3ccc(N)cc3)c3ccccc43)cc2c1 (centres unmarked) [DP48] | 5170 ± 4280 | 355 ± 352 | 581 ± 648 |  |  |  |  |  |  | 911 | 713
COc1ccc2[nH]c(C(=O)N3CC(CCl)c4c3cc(-c3ccc(C)cc3)c3ccccc43)cc2c1 (centres unmarked) [DP45] | 32900 ± 29100 | 56700 ± 37600 | 68000 ± 50700 |  |  |  |  | generated DNA damage |  | > 10000 | > 10000
COc1ccc2[nH]c(C(=O)N3CC(CCl)c4c3cc(O)c3ccccc43)cc2c1 (centres unmarked) [PC, seco-CBI-MI, reference compound] |  |  |  | 0.62 ± 0.5 |  |  |  |  | 0.69 ± 0.3 |  | 
COc1ccc(Nc2cc3c(c4ccccc24)C(CCl)CN3C(=O)c2cc3cc(OC)ccc3[nH]2)cc1 (centres unmarked) [DP59] |  |  |  | 7.6 ± 2.1 | 1.33 ± 1.93 | 0.376 ± 0.157 | 0.298 ± 0.154 | generated DNA damage | 2.5 ± 0.7 |  | 
COc1ccc2[nH]c(C(=O)N3CC(CCl)c4c3ccc3ccc(OCc5ccccc5)cc43)cc2c1 (centres unmarked) [DP77] | 22100 ± 19600 | 3080 ± 2570 | 22500 ± 17400 |  |  |  |  |  |  | > 10000 | > 10000
COc1ccc2[nH]c(C(=O)N3CC(CCl)c4c3ccc3ccc(O)cc43)cc2c1 (centres unmarked) [DP78] | 3510 ± 1840 | 268 ± 130 | 500000 ± 416000 |  |  |  |  |  |  | 1080 ± 200 | 1020 ± 200
CCCCNc1cc2c(c3ccccc13)C(CCl)CN2C(=O)c1cc2cc(OC)ccc2[nH]1 (centres unmarked) [DP63] |  |  |  | 1.7 ± 1.4 | 0.217 ± 0.287 | 0.101 ± 0.048 | 0.0204 ± 0.0114 |  | 0.8 ± 0.3 |  | 
COc1ccc2[nH]c(C(=O)N3CC(CCl)c4c3cc(-c3ccccc3)c3ccccc43)cc2c1 (centres unmarked) [ICT11043, (1-(Chloromethyl)-5-phenyl-1H-benzo[e]indol-3(2H)-yl)(5-methoxy-1H-indol-2-yl)methanone] | 138000 ± 75800 | 56000 ± 17000 | 30200 ± 23100 |  |  |  |  |  |  |  | 
C#CCCC(=O)Oc1ccc2[nH]c(C(=O)N3CC(CCl)c4c3cc(OCc3ccccc3)c3ccccc43)cc2c1 (centres unmarked) [DP42] | 278 ± 156 | 81.5 ± 77.3 | 378 ± 209 |  |  |  |  |  |  | 3200 ± 2900 | 
COc1ccc2[nH]c(C(=O)N3CC(CCl)c4c3cc(-c3ccc(CO)cc3)c3ccccc43)cc2c1 (centres unmarked) [DP44] | 4860 ± 4780 | 2190 ± 3100 | 2800 ± 1960 |  |  |  |  |  |  | 5400 ± 5800 | 4800 ± 4800
C#CCCCC(=O)Oc1ccc2[nH]c(C(=O)N3CC(CCl)c4c3cc(OCc3ccccc3)c3ccccc43)cc2c1 (centres unmarked) [DP51] | 18500 ± 9640 | 1220 ± 830 | 2510 ± 1160 |  |  |  |  |  |  | > 10000 | 
